Patent US7785850B2, “Heterologus expression of trypanothione reductase from Leishmania donovani in a prokaryotic system” (priority 2004, dated 2010)

How the values were obtained:
[1] = target: T1, recombinant Leishmania donovani Trypanothione Reductase (LDdTR) (Leishmania donovani, UniProt P39050, S2A); experiment: biochemical
T1 construct: GST (pET-41a vector fusion) (N, cleaved yes); made in house; host or cells: E. coli BL21(DE3), pET41a (clone LddTRpET41aDE3)
Description: Trypanothione reductase activity was routinely assayed spectrophotometrically at 340 nm, as previously described (25). The reaction mixture contained 100 mM HEPES pH 7.8, 20 μM EDTA, 80 μM NADPH and 50 μM TS2. The reaction was allowed to proceed for 5 min. and change in O.D. was monitored every after 30 sec. One unit of enzyme activity is defined, as that amount of enzyme required to convert 1 μmol of NADPH to NADP per minute at 25° C. […] For comparative kinetic studies, assay was performed at 50 μM NADPH and varying concentration of TS2 (20, 40, 60, 80 & 100) and at 50 μM TS2 and varying concentration of NADPH (20, 40, 60, 80, 100 & 150).

[2] = target: T2, recombinant Leishmania donovani Trypanothione Reductase (Leishmania donovani, UniProt P39050, S2A); experiment: Enzyme assay, kinetics and substrate specificity of recombinant purified trypanothione reductase; assay type: biochemical; settings: for Km / Vmax: TS2 varied at 50 μM NADPH, NADPH varied at 50 μM TS2
T2 construct: GST (pET-41a vector fusion) (N, cleaved yes); made in house; host or cells: E. coli BL21(DE3), pET41a (clone LddTRpET41aDE3)
Description: Trypanothione reductase activity was routinely assayed spectrophotometrically at 340 nm, as previously described (25). The reaction mixture contained 20-100 mM HEPES pH 7.2-7.8, 20 μM-1 mM EDTA, 80-200 μM NADPH and 15-50 μM TS2. One unit of enzyme activity is defined as that amount of enzyme required to convert 1 μmol of NADPH to NADP per minute at 25° C. Protein was assayed according to the method of Bradford (1976) as supplied by Bangalore Genei with Bovine serum albumin as a standard. For comparative kinetic studies, assay was performed at 50 μM NADPH and at 5-100 μM concentrations of TS2 and at 50 μM TS2 and at 10-200 μM concentrations of NADPH.
Trypanothione reductase activity was routinely assayed spectrophotometrically at 340 nm, as previously described (25). The reaction mixture contained 100 mM HEPES pH 7.8, 20 μM EDTA, 80 μM NADPH and 50 μM TS2. The reaction was allowed to proceed for 5 min. and change in O.D. was monitored every after 30 sec. One unit of enzyme activity is defined, as that amount of enzyme required to convert 1 μmol of NADPH to NADP per minute at 25° C. The purified recombinant enzyme has a specific activity of 12.5 U/mg. protein. Purification procedure leads to 20 fold purification from the soluble content of E. coli lysate. The total yield was 16 mg/lit (FIG. 7 describes the fold purification of Recombinant Leishmania donovani Trypanothione Reductase). […] For comparative kinetic studies, assay was performed at 50 μM NADPH and varying concentration of TS2 (20, 40, 60, 80 & 100) and at 50 μM TS2 and varying concentration of NADPH (20, 40, 60, 80, 100 & 150).

In the case of `Nc1nc(N)nc(Nc2ccc([As]=O)cc2)n1` (centres unmarked) [Melarsen Oxide, Melarsen oxide], the inhibition at 50 µM ([1]; read-out: Inhibition of TR) was > 95%.

Compound `NC(=O)C1=CN([C@@H]2O[C@H](COP(=O)(O)OP(=O)(O)OC[C@H]3O[C@@H](n4cnc5c(N)ncnc54)[C@H](OP(=O)(O)O)[C@@H]3O)[C@@H](O)[C@H]2O)C=CC1` [NADPH, Nicotinidine adenine dinucleotide phosphate] has a Km [2] of 20 µM and a Vmax [2] of 125 μM/ml/min.

`O.O.O.O=C([O-])[C@H]([O-])[C@@H]([O-])C(=O)[O-].O=C([O-])[C@H]([O-])[C@@H]([O-])C(=O)[O-].[K+].[K+].[Sb+3].[Sb+3]` [SbIII, Potassium antimony tartrate] was tested, and the “Effect on TR activity (in words)” value ([1]; studied at 50 and 100 μM concentration) was “profound effect on TR activity in comparison to SAG”.

In the case of `N[C@@H](CCC(=O)N[C@H]1CSSC[C@H](NC(=O)CC[C@H](N)C(=O)O)C(=O)NCC(=O)NCCCNCCCCNC(=O)CNC1=O)C(=O)O` [TS2, Oxidized Trypanothione], the “Substrate specificity (reduction catalyzed by purified protein)” value [2] was “specifically catalyzed reduction”, the Km [2] was 50 µM and the Vmax [2] was 200 μM/ml/min.

In the case of “Oxidised Glutathione [oxidized glutathione]”, the “Substrate specificity (reduction catalyzed by purified protein)” value [2] was “did not catalyze reduction”.
